Results published in patent US11485762B2, “Compositions and methods for inhibition of L-plastin activity in osteoclasts to reduce bone loss” (University of Maryland, Baltimore, priority 2017, dated 2022).

Assays:
Type in all cases: cell-based, mouse
[1] = tested on: osteoclasts; experiment: Osteoclast migration (transwell and phagokinesis assays)
Description: Transwell migration was done essentially as reported previously (Chellaiah et al., 2000, J. Cell Biol., 148: 665-678). Osteoclasts that migrated to the underside of the transwell membrane were stained with hematoxylin stain. Dried filters ware cut out and mounted with a permount solution (Thomas Scientific, Swedesboro, N.J.) on a glass slide. Cells were viewed under X40 objective in an inverted microscope. Six fields per transwell insert were counted using a Zeiss microscope as described previously (Chellaiah et al., 2000, J. Biol. Chem., 275: 11993-12002). Data are presented as the number of cells per migrated field (mean±SD) from one experiment.
Cell migration (phagokinesis and transwell migration) assays were done as described previously (Chellaiah et al., 2000, J. Cell Biol., 148: 665-678). Osteoclasts transduced with sNT-LPL peptides (P1, P2, P5, and P6) were used for these assays. Three to four transwells were used for each treatment. Migrated cells at the bottom of the wells were counted in 3-4 independent fields/transwell filter. Data are presented as migrated cells/field (mean±SD). The experiment was repeated with three osteoclast preparations. In phagokinesis assay, cell motility was assessed by measuring the areas free of gold particles. By using a grided reticule (Boyce Scientific. Inc.) in the eyepiece of a Nikon microscope, areas free of gold particles were measured using a 10× objective. Areas free of gold particles were represented as area moved in mm^2 (Chellaiah et al., 2000, J. Cell Biol., 148: 665-678),

[2] = tested on: osteoclasts; experiment: Podosome organization in osteoclasts (actin staining); conditions: for formation of podosomes: sNT-LPL peptides; for actin modulation involved in podosome assembly/disassembly: TAT-fused LPL peptides
Method: (§1) Osteoclast precursors (10^5 cells/coverslips) were cultured on glass cover slips or dentine slices. Fluorescent labeling was done in osteoclasts transduced or untransduced with TAT-proteins. HA or TAT antibody was used to identify the transduced peptides of interest; rhodamine phalloidin was used to determine actin organization (Chellaiah et al., 2000, J. Cell Biol., 148: 665-678; Chellaiah et al., 2000, J. Biol. Chem., 275: 11993-12002). Immunostained and actin stained osteoclasts were photographed with a Bio-Rad confocal laser-scanning microscope. Images were stored in TIF image format and processed by Adobe Photoshop (Adobe Systems Inc., Mountain View. Calif.).
(§2) After cells were kept in the serum-free α-MEM medium for two hours, LPL peptides of interest were added to a final concentration of 100-150 nM to cells in serum-free media (Chellaiah et al, 2000, J. Biol. Chem., 275: 11993-12002). Osteoclasts transduced with peptides of interest and added with bone particles in the presence of TNF-α for 3-4 hours or 12-14 hours were used for lysate preparations. Cells plated on coverslips and treated with peptides were used for actin staining to detect podosomes. After transduction for 30 min., osteoclasts were re-plated on dentine slices with respective LPL peptide and TNF-α for 3-6 hours or 12-14 hours. These cells were used for Actin staining with rhodamine-phalloidin or immunostaining analyses (Chellaiah et al., 2000, J. Biol. Chem., 275: 11993-12002; Chellaiah et al., 2000, J. Cell. Biol., 148: 665-678; Chellaiah et al., 2003, J Biol Chem 278: 29086-29097).
(§3) Osteoclasts were fixed with 3% paraformaldehyde for 20 minutes and permeabilized with 0.1% Triton X-100 in PBS for 5 minutes. Subsequently, osteoclasts were stained with a primary (HA or integrin αv) and secondary antibody as described (Chellaiah et al., 2003, J Biol Chem 278: 29086-29097). Actin staining was done with rhodamine-phalloidin as described (Chellaiah et al., 2000, J. Biol. Chem., 275: 11993-12002; Chellaiah et al., 2000, J. Cell Biol., 148: 665-678). Cells were washed and mounted on a slide in a mounting solution (Vector Laboratories) and sealed with nail polish. Immunostained osteoclasts were photographed with a Bio-Rad and Nikon confocal microscope. Images were stored in TIF image format and processed by Adobe Photoshop (Adobe Systems Inc., Mountain View, Calif.).

[3] = tested on: osteoclasts; experiment: Formation of nascent sealing zones (NSZs) in osteoclasts plated on dentine slices (actin staining); conditions: for formation of NSZs, time course: 3, 6 and 10 hours, LPL and integrin αv immunostaining; for formation of NSZs: sNT-LPL peptides, dentine; for number of NSZs: dentine slices 2-3 hours, versus basal level
Method: The vector pTAT-HA has an N-terminal 6-histidine leader (Nagahara et al., 1998, Nature Medicine, 4:1449-1452). […] For transduction with TAT-fused peptides (100-150 nM), osteoclasts were first kept in serum-free α-MEM for two hours. Afterward, TAT proteins of interest, bone particles, and TNF-α were added to cells in serum-free α-MEM Lysates were made from these cells for immunoprecipitation and immunoblotting analyses. Osteoclasts plated on dentine slices in the presence of TAT-proteins of interest and TNF-α for 3-6 hours or 12-14 hours were used for immunostaining or actin staining analyses. Osteoclast cultures treated only with TNF-α were used as controls.
as §1
as §2, with “After transduction for 30 min., osteoclasts were re-plated on dentine slices with respective LPL peptide and TNF-α for 3-6 hours or 12-14 hours.” left out
as §3

[4] = tested on: osteoclasts; experiment: F-actin content by rhodamine phalloidin binding; conditions: for F-actin content: TAT-fused LPL peptides, dentine, TNF-α, versus basal level
Method: For the measurement of F-actin, osteoclasts transduced with TAT-LPL peptides of interest for 15 to 30 minutes were re-plated on dentine slices for 3 to 4 hours or 10-12 hours, respectively, in the presence of indicated TAT-fused peptides of interest and TNF-α. For each treatment four to six wells in 24 well, culture dishes were used. Cells were fixed and rhodamine phalloidin binding to F-actin was done as described (Chellaiah et al., 2000, J. Cell Biol., 148: 665-678; Chellaiah et al., 2000, J. Biol. Chem., 275: 11993-12002: Chellaiah et at, 2007, J. Biol. Chem., 282: 10104-10116),
Osteoclasts were transduced with LPL and control peptides. For each treatment four to six wells in 24 well culture dishes were used. Cells were fixed and rhodamine phalloidin binding to F-actin was done as described (Chellaiah et al., 1998, J. Biol. Chem., 273: 11908-11916; Chellaiah et al., 1996, Mol. Biol. Cell, 7: 743-753).

[5] = phagokinesis and transwell migration assays, sNT-LPL peptides
[6] = transwell migration, TAT-fused LPL peptides

F-actin level ([4]; sNT-LPL peptides, compared with P2, P5, and P6) | Molecule | migration [1, 5] | formation of podosomes [2] | formation of NSZs, time course [3] | formation of NSZs [3] | migration [1, 6] | actin modulation involved in podosome assembly/disassembly [2] | number of NSZs ([3]; TNF-α) | F-actin content [4] | formation of NSZs, lower magnification (FIG. 7) ([3]; dentine slices 3-4 hours, TNF-α)
decrease was significant | MARGSVSDEE [Peptide P1, TAT-fused small molecular weight (10aa) amino-terminal LPL peptide, unsubstituted (S5S7)] | Neither the migration (FIG. 12A-FIG. 12C) nor the formation the podosomes (FIG. 12D) was affected | Neither the migration (FIG. 12A-FIG. 12C) nor the formation the podosomes (FIG. 12D) was affected | attenuates | considerable decrease | – | – | – | – | –
– | MARGAVADEE [Peptide P2, TAT-fused sNT-LPL peptide, Ser-5 and Ser-7 substituted to Alanine (A5A7)] | Neither the migration (FIG. 12A-FIG. 12C) nor the formation the podosomes (FIG. 12D) was affected | Neither the migration (FIG. 12A-FIG. 12C) nor the formation the podosomes (FIG. 12D) was affected | – | no inhibitory effect | – | – | – | – | –
– | SRSGMVEEAD [Peptide P5, TAT-fused scrambled sNT-LPL peptide, control, reference compound] | Neither the migration (FIG. 12A-FIG. 12C) nor the formation the podosomes (FIG. 12D) was affected | Neither the migration (FIG. 12A-FIG. 12C) nor the formation the podosomes (FIG. 12D) was affected | time-dependent organization | no inhibitory effect | – | – | – | – | –
– | FL-LPL: HA-TAT fused full-length L-plastin protein (70-75 kDa), purified from bacterial expression vector pTAT-HA (protein, UniProt P13796 1-627, looked up, full-length HA-TAT tag, HA-TAT fused full-length L-plastin protein (70-75 kDa), purified from bacterial expression vector pTAT-HA) MARGSVSDEEMMELREAFAKVDTDGNGYISFNELNDLFKAACLPLPGYRVREITENLMATGDLDQDGRISFDEFIKIFHGLKSTDVAKTFRKAINKKEGICAIGGTSEQSSVGTQHSYSEEEKYAFVNWINKALENDPDCRHVIPMNPNTNDLFNAVGDGIVLCKMINLSVPDTIDERTINKKKLTPFTIQENLNLALNSASAIGCHVVNIGAEDLKEGKPYLVLGLLWQVIKIGLFADIELSRNEALIALLREGESLEDLMKLSPEELLLRWANYHLENAGCNKIGNFSTDIKDSKAYYHLLEQVAPKGDEEGVPAVVIDMSGLREKDDIQRAECMLQQAERLGCRQFVTATDVVRGNPKLNLAFIANLFNRYPALHKPENQDIDWGALEGETREERTFRNWMNSLGVNPRVNHLYSDLSDALVIFQLYEKIKVPVDWNRVNKPPYPKLGGNMKKLENCNYAVELGKNQAKFSLVGIGGQDLNEGNRTLTLALIWQLMRRYTLNILEEIGGGQKVNDDIIVNWVNETLREAKKSSSISSFKDPKISTSLPVLDLIDAIQPGSINYDLLKTENLNDDEKLNNAKYAISMARKIGARVYALPEDLVEVNPKMVMTVFACLMGKGMKRV | – | – | – | – | does not affect | does not affect | substantial increase above the basal level | substantial increase above the basal level | –
– | mutated FL-LPL: TAT-fused full-length L-plastin with Ser-5 and Ser-7 mutated to Ala-5 and Ala-7 (protein, UniProt P13796 1-627, looked up, variant S5A S7A, full-length HA-TAT tag) MARGAVADEEMMELREAFAKVDTDGNGYISFNELNDLFKAACLPLPGYRVREITENLMATGDLDQDGRISFDEFIKIFHGLKSTDVAKTFRKAINKKEGICAIGGTSEQSSVGTQHSYSEEEKYAFVNWINKALENDPDCRHVIPMNPNTNDLFNAVGDGIVLCKMINLSVPDTIDERTINKKKLTPFTIQENLNLALNSASAIGCHVVNIGAEDLKEGKPYLVLGLLWQVIKIGLFADIELSRNEALIALLREGESLEDLMKLSPEELLLRWANYHLENAGCNKIGNFSTDIKDSKAYYHLLEQVAPKGDEEGVPAVVIDMSGLREKDDIQRAECMLQQAERLGCRQFVTATDVVRGNPKLNLAFIANLFNRYPALHKPENQDIDWGALEGETREERTFRNWMNSLGVNPRVNHLYSDLSDALVIFQLYEKIKVPVDWNRVNKPPYPKLGGNMKKLENCNYAVELGKNQAKFSLVGIGGQDLNEGNRTLTLALIWQLMRRYTLNILEEIGGGQKVNDDIIVNWVNETLREAKKSSSISSFKDPKISTSLPVLDLIDAIQPGSINYDLLKTENLNDDEKLNNAKYAISMARKIGARVYALPEDLVEVNPKMVMTVFACLMGKGMKRV | – | – | – | – | does not affect | does not affect | more or less equal | more or less equal | did not affect
